# Data: US11845935B2, “Regulation of MIR-143 using nucleic acid molecules” (CHILDREN'S HOSPITAL MEDICAL CENTER, priority 2017, dated 2023)
# pIC50: −log10 of the molar value.
# Experiments:
# M6PR [1] = target: T1, M6PR (Homo sapiens, UniProt P11717); assay: M6P competition of IDUA-myc uptake in HUVEC; format: cell-based
# T1 construct: endogenous in cells; host or cells: HUVEC (parental, or transduced with LV-143Spg / control LV)
# M6PR [2] = target: T1, M6PR; assay: M6P competition of IDUA-myc uptake in hCMEC/D3 cells; format: cell-based; settings: 1 h exposure to IDUA-myc conditioned medium (~20,000 U/mL), read-out: Median inhibitory concentration (IC50) of IDUA-myc uptake
# T1 sequence (P11717 41-2491): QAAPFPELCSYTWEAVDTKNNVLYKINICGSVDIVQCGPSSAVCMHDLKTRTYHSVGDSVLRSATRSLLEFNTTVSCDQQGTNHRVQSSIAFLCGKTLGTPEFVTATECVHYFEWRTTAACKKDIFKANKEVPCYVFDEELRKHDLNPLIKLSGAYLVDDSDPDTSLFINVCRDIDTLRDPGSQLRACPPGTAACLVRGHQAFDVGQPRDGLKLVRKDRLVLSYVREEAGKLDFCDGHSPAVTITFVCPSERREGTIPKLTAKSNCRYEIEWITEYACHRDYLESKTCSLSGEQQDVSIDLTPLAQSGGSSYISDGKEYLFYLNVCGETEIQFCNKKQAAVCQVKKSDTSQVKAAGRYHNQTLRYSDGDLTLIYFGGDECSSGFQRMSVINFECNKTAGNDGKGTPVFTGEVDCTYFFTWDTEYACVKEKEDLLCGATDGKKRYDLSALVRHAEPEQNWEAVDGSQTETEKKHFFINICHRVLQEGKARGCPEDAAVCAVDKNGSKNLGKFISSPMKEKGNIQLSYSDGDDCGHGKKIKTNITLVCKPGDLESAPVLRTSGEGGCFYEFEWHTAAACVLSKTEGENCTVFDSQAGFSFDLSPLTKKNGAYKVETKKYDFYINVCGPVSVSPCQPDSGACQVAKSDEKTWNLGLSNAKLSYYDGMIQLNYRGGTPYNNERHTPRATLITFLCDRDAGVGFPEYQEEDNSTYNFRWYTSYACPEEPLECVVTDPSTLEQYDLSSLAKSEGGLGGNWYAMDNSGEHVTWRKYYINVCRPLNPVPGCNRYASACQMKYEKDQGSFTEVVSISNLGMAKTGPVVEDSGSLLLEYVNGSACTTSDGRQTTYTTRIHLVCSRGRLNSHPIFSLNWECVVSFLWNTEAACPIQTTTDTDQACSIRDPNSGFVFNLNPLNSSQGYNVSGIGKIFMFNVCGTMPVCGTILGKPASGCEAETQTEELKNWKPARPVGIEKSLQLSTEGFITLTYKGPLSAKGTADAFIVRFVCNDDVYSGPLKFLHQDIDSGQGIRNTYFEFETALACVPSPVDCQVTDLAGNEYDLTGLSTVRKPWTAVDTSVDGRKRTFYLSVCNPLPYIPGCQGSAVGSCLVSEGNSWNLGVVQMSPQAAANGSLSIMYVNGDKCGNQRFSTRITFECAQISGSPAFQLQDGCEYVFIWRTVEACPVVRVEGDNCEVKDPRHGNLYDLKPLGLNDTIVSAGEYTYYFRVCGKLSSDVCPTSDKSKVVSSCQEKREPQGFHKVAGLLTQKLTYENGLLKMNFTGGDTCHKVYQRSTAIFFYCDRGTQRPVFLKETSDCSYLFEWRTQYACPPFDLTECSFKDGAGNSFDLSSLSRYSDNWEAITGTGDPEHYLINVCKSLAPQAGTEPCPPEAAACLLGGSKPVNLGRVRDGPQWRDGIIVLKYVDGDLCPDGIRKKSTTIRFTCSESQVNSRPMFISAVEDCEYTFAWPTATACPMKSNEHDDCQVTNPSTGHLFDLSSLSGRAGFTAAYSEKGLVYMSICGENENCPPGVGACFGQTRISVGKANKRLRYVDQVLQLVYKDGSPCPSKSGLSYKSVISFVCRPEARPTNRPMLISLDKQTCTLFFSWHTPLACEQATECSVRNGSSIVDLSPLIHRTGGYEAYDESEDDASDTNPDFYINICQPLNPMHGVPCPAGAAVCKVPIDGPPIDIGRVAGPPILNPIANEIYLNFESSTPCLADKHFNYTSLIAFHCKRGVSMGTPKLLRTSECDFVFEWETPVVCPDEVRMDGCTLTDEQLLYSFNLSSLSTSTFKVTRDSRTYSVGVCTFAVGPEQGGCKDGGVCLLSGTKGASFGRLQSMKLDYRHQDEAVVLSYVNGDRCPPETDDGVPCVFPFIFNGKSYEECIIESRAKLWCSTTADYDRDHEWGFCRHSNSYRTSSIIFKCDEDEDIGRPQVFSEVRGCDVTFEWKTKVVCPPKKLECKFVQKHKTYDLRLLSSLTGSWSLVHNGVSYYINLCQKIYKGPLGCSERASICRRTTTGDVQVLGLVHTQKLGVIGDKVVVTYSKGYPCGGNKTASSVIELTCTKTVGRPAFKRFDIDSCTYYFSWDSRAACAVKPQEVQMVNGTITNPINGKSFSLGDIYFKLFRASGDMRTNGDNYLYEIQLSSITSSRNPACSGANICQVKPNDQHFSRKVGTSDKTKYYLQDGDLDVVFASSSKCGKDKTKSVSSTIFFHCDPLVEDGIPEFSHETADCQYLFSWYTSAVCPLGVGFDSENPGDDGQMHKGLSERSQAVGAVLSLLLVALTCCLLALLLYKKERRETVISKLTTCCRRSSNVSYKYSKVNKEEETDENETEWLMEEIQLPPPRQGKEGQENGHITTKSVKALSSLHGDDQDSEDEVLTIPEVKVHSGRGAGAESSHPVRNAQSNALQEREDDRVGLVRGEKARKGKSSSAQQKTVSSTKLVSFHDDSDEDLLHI
smiles,measurement,setting,value
"O=C[C@@H](O)[C@@H](O)[C@H](O)[C@H](O)COP(=O)(O)O [M6P inhibitor, mannose 6-phosphate]",pIC50,"M6PR [1]; 1 h exposure to IDUA-myc conditioned medium (~20,000 U/mL), read-out: Median inhibitory concentration (IC50) of IDUA-myc uptake",3.46
same,M6PR-independent uptake (plateau),M6PR [1]; residual uptake under M6P competition,~18%
same,pIC50,M6PR [2],4.24
